# Test results: patent US20140073651A1, “BENZAMIDE DERIVATIVES AS P2X7 RECEPTOR ANTAGONISTS” (Actelion Pharmaceuticals Ltd., priority 2011, published 2014)
# Target: T1, human recombinant P2X7 receptor (Homo sapiens, UniProt Q99572)
# T1 construct: expressed in transfected cells
# T1 sequence (Q99572 1-595): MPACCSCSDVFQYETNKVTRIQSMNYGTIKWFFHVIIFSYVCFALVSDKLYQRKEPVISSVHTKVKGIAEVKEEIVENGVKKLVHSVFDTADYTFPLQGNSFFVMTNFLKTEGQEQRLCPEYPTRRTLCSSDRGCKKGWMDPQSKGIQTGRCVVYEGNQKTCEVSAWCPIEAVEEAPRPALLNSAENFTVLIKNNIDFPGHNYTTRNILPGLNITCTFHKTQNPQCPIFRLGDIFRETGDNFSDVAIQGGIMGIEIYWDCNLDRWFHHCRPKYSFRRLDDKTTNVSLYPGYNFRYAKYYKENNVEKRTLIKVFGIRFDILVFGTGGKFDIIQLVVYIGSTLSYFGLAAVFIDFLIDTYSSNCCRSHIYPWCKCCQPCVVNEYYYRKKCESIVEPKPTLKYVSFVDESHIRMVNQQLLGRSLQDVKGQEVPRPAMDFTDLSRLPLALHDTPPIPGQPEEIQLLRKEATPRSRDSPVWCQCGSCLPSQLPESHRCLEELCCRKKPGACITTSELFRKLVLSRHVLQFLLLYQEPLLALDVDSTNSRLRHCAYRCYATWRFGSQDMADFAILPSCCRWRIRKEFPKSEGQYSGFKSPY
# Assay: YO-PRO assay (YO-PRO-1 uptake) in HEK cells stably expressing P2X7
# Format: cell-based
# Conditions: HEK-293 cells expressing human recombinant P2X7 receptor; ATP 250 μM, 90 minutes; YO-PRO-1 fluorescence (FLIPR tetra); read-out: IC50 (antagonistic activity with respect to the P2X7 receptor)
# Protocol: Cell line generation was performed in general according to established molecular cloning protocols. Specifically, RNA was extracted from human whole blood using the Qiagen RNeasy kit (Qiagen, CH) according to the manufacturer's instructions. Subsequently cDNA was made (Superscript II, Invitrogen AG, CH) and the human P2X7 gene (genbank ref. BC011913) was amplified with the following primers: [NT] and [NT] The amplified sequence was subsequently ligated into a pcDNA3.1 (+) NotI, NheI digested plasmid. […] Following a 24 h exposure to DNA, cells were trypsinized and re-seeded at low density in the presence of 250 μg Geneticin. Geneticin resistant cells were then selected during two consecutive rounds of cloning by serial limiting dilution with visual inspection. Individual clones were screened for P2X7 expression by applying ATP and recording the resultant uptake of YO-[…]. Specific cell clones were chosen based on RNA and protein expression. HEK cells stably expressing P2X7 were used to screen drugs using the YO-[…] assay. Cells were grown to confluency in adherent culture at 37° C. in a humidified 5% CO2 incubator (split 1/5 every 3-4 days with DMEM, 10% FCS, 1% Penicillin/Streptomycin, 250 μg/ml Geneticin). Adherent cells were detached by incubation with Trypsine (1 ml per 165 cm^2 dish) for 2 minutes, then washed off with 10 ml PBS (without Mg^2+ and Ca^2+), and resuspended in DMEM, 10% FCS, 1% Penicillin/Streptomycin, no Geneticin. 10'000 cells per well (48 hours before the assay) or 25'000 cells per well (Vi-cell XR (Beckman Coulter) (24 hours before the assay) in 50 μl full medium were seeded on 384-well black-wall, clear bottom plates, that were coated before with 10 μl per well Poly-L-Lysine, incubated for 30-60 minutes at 37° C. and washed once with PBS. Medium was removed from cells and 50 μl of assay buffer containing 0.5 μM YO-[…] was added into the wells. Solutions of antagonist compounds were prepared by serial dilutions of a 10 mM DMSO solution of the antagonist into PBS using a BioMek (Beckman Coulter). Each concentration was performed in duplicate. […] During this time period, four time points were taken. Each time point comprised the average of several measurements made within a few seconds. […] The FLIPR tetra was equipped with Molecular Devices Screen Works system control software to define and run experimental protocols. […] For IC50 measurements the maximum intensity is plotted against the concentration of compound to determine IC50 values.
row,IC50 [nM],Structure (SMILES)
1,258,"CN(c1ccc(Cl)c(C(=O)NCC2(O)CCCC2)c1)c1ccnc(=O)[nH]1 [Example 50, 2-Chloro-N-(1-hydroxy-cyclopentylmethyl)-5-[methyl-(2-oxo-2,3-dihydro-pyrimidin-4-yl)-amino]-benzamide]"
2,460,"COC1(CNC(=O)c2cc(N(C)c3ccnc(Cl)n3)ccc2Cl)CCCCC1 [Example 51, 2-Chloro-5-[(2-chloro-pyrimidin-4-yl)-methyl-amino]-N-(1-methoxy-cyclohexylmethyl)-benzamide]"
3,170,"COC1(CNC(=O)c2cc(N(C)c3ccnc(=O)[nH]3)ccc2Cl)CCCCC1 [Example 52, 2-Chloro-N-(1-methoxy-cyclohexylmethyl)-5-[methyl-(2-oxo-2,3-dihydro-pyrimidin-4-yl)-amino]-benzamide]"
4,576,"CN(c1ccc(Cl)c(C(=O)NCC2(C(N)=O)CCCCC2)c1)c1ccnc(Cl)n1 [Example 53, N-(1-Carbamoyl-cyclohexylmethyl)-2-chloro-5-[(2-chloro-pyrimidin-4-yl)-methyl-amino]-benzamide]"
5,231,"CN(c1ccc(Cl)c(C(=O)NCC2(C(N)=O)CCCCC2)c1)c1ccnc(=O)[nH]1 [Example 54, N-(1-Carbamoyl-cyclohexylmethyl)-2-chloro-5-[methyl-(2-oxo-2,3-dihydro-pyrimidin-4-yl)-amino]-benzamide]"
6,482,"CN(c1ccc(Cl)c(C(=O)NCC2(CO)CCCCC2)c1)c1ccnc(Cl)n1 [Example 55, 2-Chloro-5-[(2-chloro-pyrimidin-4-yl)-methyl-amino]-N-(1-hydroxymethyl-cyclohexylmethyl)-benzamide]"
7,74,"CN(c1ccc(Cl)c(C(=O)NCC2(CO)CCCCC2)c1)c1ccnc(=O)[nH]1 [Example 56, 2-Chloro-N-(1-hydroxymethyl-cyclohexylmethyl)-5-[methyl-(2-oxo-2,3-dihydro-pyrimidin-4-yl)-amino]-benzamide]"
8,214,"CN(c1ccc(Cl)c(C(=O)NCC2(O)CCC(F)(F)CC2)c1)c1ccnc(Cl)n1 [Example 57, 2-Chloro-5-[(2-chloro-pyrimidin-4-yl)-methyl-amino]-N-(4,4-difluoro-1-hydroxy-cyclohexylmethyl)-benzamide]"
9,51,"CN(c1ccc(Cl)c(C(=O)NCC2(O)CCC(F)(F)CC2)c1)c1ccnc(=O)[nH]1 [Example 58, 2-Chloro-N-(4,4-difluoro-1-hydroxy-cyclohexylmethyl)-5-[methyl-(2-oxo-2,3-dihydro-pyrimidin-4-yl)-amino]-benzamide]"
10,1810,"CSc1nccc(Nc2ccc(Cl)c(C(=O)N[C@H](C)C3CCCCC3)c2)n1 [Example 59, 2-Chloro-N—((R)-1-cyclohexyl-ethyl)-5-(2-methylsulfanyl-pyrimidin-4-ylamino)-benzamide]"
11,1030,"CSc1nccc(Nc2ccc(Cl)c(C(=O)N[C@H](CO)C3CCCCC3)c2)n1 [Example 60, 2-Chloro-N—((S)-1-cyclohexyl-2-hydroxy-ethyl)-5-(2-methylsulfanyl-pyrimidin-4-ylamino)-benzamide]"
12,681,"CSc1nccc(Nc2ccc(Cl)c(C(=O)NCC3(O)CCCCCC3)c2)n1 [Example 61, 2-Chloro-N-(1-hydroxy-cycloheptylmethyl)-5-(2-methylsulfanyl-pyrimidin-4-ylamino)-benzamide]"
13,416,"CN(c1ccc(Cl)c(C(=O)NCC2(O)CCCCC2)c1)c1cc(Cl)nc(Cl)n1 [Example 62, 2-Chloro-5-[(2,6-dichloro-pyrimidin-4-yl)-methyl-amino]-N-(1-hydroxy-cyclohexylmethyl)-benzamide]"
14,307,"COc1nc(Cl)cc(N(C)c2ccc(Cl)c(C(=O)NCC3(O)CCCCC3)c2)n1 [Example 63, 2-Chloro-5-[(6-chloro-2-methoxy-pyrimidin-4-yl)-methyl-amino]-N-(1-hydroxy-cyclohexylmethyl)-benzamide]"
15,902,"CN(c1ccc(Cl)c(C(=O)NCC2(O)CCCCC2)c1)c1cc(Cl)[nH]c(=O)n1 [Example 64, 2-Chloro-5-[(6-chloro-2-oxo-1,2-dihydro-pyrimidin-4-yl)-methyl-amino]-N-(1-hydroxy-cyclohexylmethyl)-benzamide]"
16,205,"CSc1cc(N(C)c2ccc(Cl)c(C(=O)NCC3(O)CCCCC3)c2)ncn1 [Example 65, 2-Chloro-N-(1-hydroxy-cyclohexylmethyl)-5-[methyl-(6-methylsulfanyl-pyrimidin-4-yl)-amino]-benzamide]"
17,158,"CN(c1ccc(Cl)c(C(=O)NCC2(O)CCCCC2)c1)c1cc(S(C)(=O)=O)ncn1 [Example 66, 2-Chloro-N-(1-hydroxy-cyclohexylmethyl)-5-[(6-methanesulfonyl-pyrimidin-4-yl)-methyl-amino]-benzamide]"
18,337,"COc1cc(N(C)c2ccc(Cl)c(C(=O)NCC3(O)CCCCC3)c2)ncn1 [Example 67, 2-Chloro-N-(1-hydroxy-cyclohexylmethyl)-5-[(6-methoxy-pyrimidin-4-yl)-methyl-amino]-benzamide]"
19,288,"CN(c1ccc(Cl)c(C(=O)NCC2(O)CCCCC2)c1)c1cc(=O)[nH]cn1 [Example 68, 2-Chloro-N-(1-hydroxy-cyclohexylmethyl)-5-[methyl-(6-oxo-1,6-dihydro-pyrimidin-4-yl)-amino]-benzamide]"
20,326,"O=C(NCC1(O)CCCCC1)c1cc(Nc2ncccn2)ccc1Cl [Example 69, 2-Chloro-N-(1-hydroxy-cyclohexylmethyl)-5-(pyrimidin-2-ylamino)-benzamide]"
21,373,"CN(c1ccc(Cl)c(C(=O)NCC2(O)CCCCC2)c1)c1ncccn1 [Example 70, 2-Chloro-N-(1-hydroxy-cyclohexylmethyl)-5-(methyl-pyrimidin-2-yl-amino)-benzamide]"
22,2000,"COCCN(c1ccc(Cl)c(C(=O)NCC2(O)CCCCC2)c1)c1ncccn1 [Example 71, 2-Chloro-N-(1-hydroxy-cyclohexylmethyl)-5-[(2-methoxy-ethyl)-pyrimidin-2-yl-amino]-benzamide]"
23,1460,"CSc1ccnc(Nc2ccc(Cl)c(C(=O)NCC3(O)CCCCC3)c2)n1 [Example 72, 2-Chloro-N-(1-hydroxy-cyclohexylmethyl)-5-(4-methylsulfanyl-pyrimidin-2-ylamino)-benzamide]"
24,322,"CSc1ccnc(N(C)c2ccc(Cl)c(C(=O)NCC3(O)CCCCC3)c2)n1 [Example 73, 2-Chloro-N-(1-hydroxy-cyclohexylmethyl)-5-[methyl-(4-methylsulfanyl-pyrimidin-2-yl)-amino]-benzamide]"
25,280,"COc1ccnc(N(C)c2ccc(Cl)c(C(=O)NCC3(O)CCCCC3)c2)n1 [Example 74, 2-Chloro-N-(1-hydroxy-cyclohexylmethyl)-5-[(4-methoxy-pyrimidin-2-yl)-methyl-amino]-benzamide]"
26,1020,"CN(c1ccc(Cl)c(C(=O)NCC2(O)CCCCC2)c1)c1nccc(=O)[nH]1 [Example 75, 2-Chloro-N-(1-hydroxy-cyclohexylmethyl)-5-[methyl-(6-oxo-1,6-dihydro-pyrimidin-2-yl)-amino]-benzamide]"
27,418,"O=C(NCC1(O)CCCCC1)c1cc(Nc2cncnc2)ccc1Cl [Example 76, 2-Chloro-N-(1-hydroxy-cyclohexylmethyl)-5-(pyrimidin-5-ylamino)-benzamide]"
